# Biological target: T1, mitochondrial electron transport chain complex I (ETCC1), NADH ubiquinone oxidoreductase (Bos taurus, UniProt P03887+P17694+P42026)
# T1 construct: gene MT-ND1
compound,measurement,value
"C=C(C)[C@@H]1C[C@@]2(C)C(=CC1=O)CC[C@@H](OC(=O)/C(C)=C\C)[C@@H]2C [PT, petasin]",IC50,3.55 µM

# Source: article PMC8409585 (The Journal of Clinical Investigation, 2021)
